Key:
chymotrypsin = chymotrypsin (Bos taurus, UniProt P00766); test: Proteolyse in vitro: chymotrypsic hydrolyse, liberated daunorubicin derivative analysed by thin layer chromatography; format: biochemical; conditions: Tris-HCl buffer 0.05 M, CaCl2 10 mM, pH 8.0; TLC analysis
Protocol: The chymotrypsic hydrolyse is effected in a Tris-HCl buffer 0.05 M, CaCl2 10 mM at pH=8.0.
On analysis, the derivatives of the daunorubicin are liberated after enzymatic hydrolysis, by thin layer chromatography.

[1] = Localization of radiolabelled Daunorubicin drugs in organs of 3 LL tumor-bearing mice; conditions: i.v. 100 micrograms Daunorubicin equivalent, 48 or 72 hours after injection
Protocol: The radiolabelled Daunorubicin drugs (14-^14 C) are injected intravenously 14 days after implantation of 10^5 3 LL cells. Either 100 micrograms of free Daunorubicin (5×10^5 cpm), or 100 micrograms of Daunorubicin in macromolecular form (5×10^5 cpm) is injected. Localization is measured after the intravenous injection of various products.
The mice are sacrificed by cervical elongation 48 hours or 72 hours after injection. The organs are removed, dissolved by a tissue solubilizing agent (NCS Amersham) at a rate of 200 mg to 300 mg of organ/ml of solubilizing agent, then counted in a liquid scintillant. […] The results are recapitulated in FIG. 3.

3 LL cells = test: In vivo antitumor activity on mice implanted with 3 LL cells (tumor growth and survival); parameters: species or system C 57 BL/6 male mice; conditions: for inhibition of tumor growth relative to the control lot: Daunorubicin 7x10 micrograms, polymer 8x200 microgram equivalents of Daunorubicin (i.v. days 2, 6, 10, i.p. days 14-30), FIG. 4
Protocol: The in vivo antitumor activity of the macromolecular drugs is evaluated on C 57 BL/6 male mice aged a total of about 10 weeks. 10^5 3 LL cells are implanted in each mouse by intramuscular injection of 100 microliters of a cellular suspension of 10^6 cells/ml in the right posterior paw.
One lot of 10 mice, serving as a control, is injected with 7×100 microliters of physiologic serum.
One lot of 10 mice is treated with 7×10 micrograms of free Daunorubicin (dosage limited due to the toxicity of the free drug).
After intramuscular injection of the tumoral cells, the macromolecular prodrug is injected intravenously at days 2, 6 and 10, then intraperitoneally at days 14, 18, 22, 26 and 30.
Two parameters are recorded to evaluate the in vivo antitumoral activity: the inhibition of tumor growth and animal survival.

[2] = comparison value, source not given; cited from earlier work
trypsin = molecular target: T1, trypsin (Bos taurus, UniProt P00760); test: Proteolyse in vitro: trypsic hydrolysis, liberated daunorubicin derivative analysed by thin layer chromatography; format: biochemical; conditions: 0.1M sodium bicarbonate, CaCl2 10 mM, pH 8.7; TLC analysis
T1 construct: gene PRSS1
T1 sequence (P00760 24-246): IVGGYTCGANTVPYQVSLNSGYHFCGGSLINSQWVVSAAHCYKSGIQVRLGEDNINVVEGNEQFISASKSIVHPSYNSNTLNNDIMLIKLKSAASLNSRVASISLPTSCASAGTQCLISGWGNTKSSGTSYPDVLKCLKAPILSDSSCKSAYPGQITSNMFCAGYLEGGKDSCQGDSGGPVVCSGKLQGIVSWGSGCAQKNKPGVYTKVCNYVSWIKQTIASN
Protocol: On analysis, the derivatives of the daunorubicin are liberated after enzymatic hydrolysis, by thin layer chromatography. For example:
Trypsic hydrolysis is carried out in a 0.1M solution of sodium bicarbonate, CaCl2, 10 mM at pH, 8.7.

Compound	derivative of daunorubicin liberated after chymotrypsic hydrolysis (chymotrypsin)	spleen mass / atrophy [1]	inhibition of tumor growth relative to the control lot (3 LL cells)	also measured
polycarboxylated linear polymer of 2-N-acryloylamino-2-hydroxymethyl-1,3-propanediol substituted by the Gly-L-Phe-L-Ala-L-Leu-Daunorubicin sequence [Example 3]	frees alaninyl-leucyl-daunorubicin			
COc1cccc2c1C(=O)c1c(O)c3c(c(O)c1C2=O)C[C@@](O)(C(C)=O)C[C@@H]3O[C@H]1C[C@H](N)[C@H](O)[C@H](C)O1 [Daunorubicin]		severe atrophy of the spleen	does not influence in a significant manner tumoral growth	radioactivity of the spleen [1]: significant accumulation of the radioactivity
COc1cccc2c1C(=O)c1c(O)c3c(c(O)c1C2=O)C[C@@](O)(C(=O)CO)C[C@@H]3O[C@H]1C[C@H](N)[C@H](O)[C@H](C)O1 [adriamycin]				time to disappear from plasma [2]: 20 min
polycarboxylated linear polymer of 2-N-acryloylamino-2-hydroxymethyl-1,3-propanediol substituted by the Gly-L-Pro-L-Arg-L-Leu-Daunorubicin sequence [Example 6]				derivative of daunorubicin liberated after trypsic hydrolysis (trypsin): freeing leucyl-daunorubicin
polycarboxylated linear polymer of 2-N-acryloylamino-2-hydroxymethyl-1,3-propanediol substituted by the -Gly-Gly-L-Tyr-L-Leu-Daunorubicin sequence [Example 2]	liberates leucyl-daunorubicin	mass comparable to that of the healthy animals	significant inhibition of tumor growth	T/C (survival of the animals treated relative to the control animals) (3 LL cells; 8x200 microgram equivalents of Daunorubicin, FIG. 5): 145
polycarboxylated linear polymer of 2-N-acryloylamino-2-hydroxymethyl-1,3-propanediol substituted by the -Gly-Gly-L-Tyr-Daunorubicin sequence [Example 1]	frees the daunorubicin			
